Values joined by “and” are separate entries in the source; they are usually repeats but may differ in a detail not shown here. Identical values can stand only once. Marks after values point to notes of the source that are not given here.
Assays:
Format in all cases: in vivo
Tetranychus urticae [1] = assay: Contact mortality (Leaf Disc Method); conditions: for Mortality (%M): adults, 24 h, Abbott corrected
Method: This bioassay is to evaluate the physical effect of different doses on the mortality of Tetranychus urticae (red spider mite) adults in a short/medium-term (0-24 hours) by topical application.
Tests were conducted in plastic net petri dishes (5 cm diameter) (Figure 2). (a) The bottom of the petri dish was covered with a thin (0.4 mm) layer of agar 12% (w/v). After 2 minutes, to cool agar, (b) bean (Phaseolus vulgaris) leaf discs (2 cm^2) were placed on the fresh agar surface (upper side up) and allowed to dry for 30 minutes. This provides a support and disc hydration along the experiment (24 h). Fifteen (c) Tetranychus urticae adults were placed on the upper surface of a bean leaf disc with a fine entomological brush. The mites were allowed to acclimate for 30 minutes. A total of 10 petri dishes for each treatment (individual active ingredients, blend of active ingredients, positive and negative controls) were used in each experiment and temporarily replicated 3 times along the week.
Each treatment (different doses of individual active ingredients, blend of active ingredients, and controls) was sprayed (50 µl) two times on the settled spider mites, covering all the disc surface in each petri dishes using a micro-atomizer. Closed and labeled bottles were incubated in a compact-type growth chamber at 25 (±2) °C, 60% relative humidity (RH), and a photoperiod of 16 h:8 h light: dark. Numbers of live and dead mite adults were counted at 24 h post-treatment. Mite adults were considered dead if no movement was apparent after probing with the tip of a fine brush under stereoscopic magnifying glass. Mortality percentage was calculated in treatment and control groups. If the mortality in negative control is above 20%, the test was discarded. When control mortality was greater than 5% but less than 20%, the observed mortality (%M) was corrected using Abbott's formula (Abbott, 1925): % Corrected M = (X−Y)/(100−Y)x [formula]
Where: X= Mortality (%) in the treatment; Y= Mortality (%) in the control
Means of %M were compared using a one-way analysis of variance (ANOVA, p<0.05) and LSD-test as a post hoc test to verify significant differences between single treatments using Statgraphics Centurion XVII software. When nonnormality in the data was detected, an additional Kruskal-Wallis test was conducted, and Box-and-Whisker Plot (Median Notch) was presented. Each active ingredient and the blend were tested in a dose-response experiment (3-5 serial dilutions) to calculate their relative potency (EC50 and/or EC90) from a linear regression analysis (%M on Log-dose). In addition, death mite adults were carefully observed under stereoscopic magnifying glass to differentiate the mechanisms of action involved in contact mortality such as: Blocking tracheal insect spiracles (suffocation) and effect on insect cuticle and/or membranes (osmotic shock). Table 4. Contact mortality of test items against Tetranychus urticae

Tetranychus urticae [2] = assay: Knock-down bioassays; conditions: 1% w/v; mortality assessed at 1, 2, 4, 6, 8, 16 and 24 hours after spraying; Figures 7 and 8
Method: Furthermore, the composition of the present invention was tested to evaluate its knock-down effect in the contact mortality assays of individual active ingredients and blend. Mortality, as in bioassay of contact mortality, was assessed at 1, 2, 4, 6, 8, 16 and 24 hours after spraying the blend of Eucalyptus oil and geraniol. In the case of individual active ingredients (Eucalyptus oil and geraniol), we used the dose that give major activity in contact (topical) assays 1% w/v Table 4. Blend was prepared at 0.06:0.06 %w/v (Eucalyptus oil: geraniol) for the bioassays with the biopesticide composition.
The same behavior was stated in the case of biopesticide composition (Figure 9). Abrupt curves showing high mortalities within oner hour are indicative of neurotoxic effects. However, smoothed curves could be used as indicative of non-toxic mode of action.

Tetranychus urticae [3] = assay: In vitro settling inhibition (leaf disc painting method); conditions: 24 h
Method: The objective of this bioassay is to evaluate the effect of different doses of individual active ingredients and biopesticide composition on the settling behavior of Tetranychus urticae. It's based on the preference of mite adults for treated and non-treated bean (Phaseolus vulgaris) plants located in the same petri dishes (in vitro assays) or entomological cages (in planta assays): Tests were conducted in plastic net petri dishes (5cm diameter) (Figure 3). The bottom of the petri dish was covered with a thin (0.4 mm) layer of agar 12% (w/v) (a). After 2 minutes to cool agar, bean (Phaseolus vulgaris) leaf discs (2 cm^2) were placed on the fresh agar surface (upper side up) and allowed to dry for 30 minutes. It provides a support and disc hydration along the experiment (24 h). Half of the discs were treated (T) with 20 µl of the individually active ingredients and the blend and the other half with water containing 2% TWEEN® 80 that was used as control (C). Fifteen Tetranychus urticae adults were placed on the middle of treated and untreated leaf discs and allowed to feed (24 h) in a compact-type growth chamber at 25 (±2) °C, 60% relative humidity, and a photoperiod of 16 h:8 h light: dark. A total of 10 petri dishes for each treatment were used in each experiment and temporarily replicated 3 times along the week. Table 5. In vitro antifeedant effects against Tetranychus urticae Settling inhibition index (%SI) was calculated according to the following formula: %SI = [1−((T)/(C))] × 100 [formula] T= Settling of treated plants; C= Settling of control plants.

Tetranychus urticae [4] = assay: In planta settling inhibition (Whole Plant Direct Method); conditions: 24 hours
Method: The objective of this bioassay is to evaluate the effect of different doses of individual active ingredients and biopesticide composition on the settling behavior of Tetranychus urticae. It's based on the preference of mite adults for treated and non-treated bean (Phaseolus vulgaris) plants located in the same petri dishes (in vitro assays) or entomological cages (in planta assays): The experiments were conducted in bugdorm®-type net cages (60x60x60 cm, 140 microns mesh) (Figure 4). By putting inside this, 14 cm diameter pots with two similar bean plants in two-leaf stage in each pot (Figure 5). One of the plants was sprayed with the composition of the present invention and the other with the control and allowed to dry for 30 minutes. Adult mites (up to 100) were released at the base of stems between the two plants (treated and untreated), so that they had to choose between two alternatives or remain walking and/or resting on the cage walk. A total of 5 cages for each treatment (four plant each) (Figure 6) and control were used in each experiment and replicated 3 times in different days. Closed and labeled cages were incubated in a "walk-in" type growth chamber at 25 (±2) °C, 60% relative humidity (RH), and a photoperiod of 16 h:8 h light: dark. After 24 hours the number of adults settled in treated and non-treated plants and the number of laid eggs were recorded on both side of blade in each leaf. Number of mites and eggs were counted under a stereomicroscope. Settling inhibition index (%SI) was calculated according to the following formula: %SI = [1−((T)/(C))] × 100 [formula] T= Settling of treated plants; C= Settling of control plants. Oviposition inhibition index (%10) was calculated according to the following formula: %IO = [1−((T)/(C))] × 100 [formula] T= laid eggs on treated plants; C= laid eggs on control plants. Means of %SI and %10 were analyzed for significance by the non-parametric Wilcoxon signed-rank test (p<0.05). An asterisk (*) means statistically significancy. Table 6. In planta antifeedant effects against Tetranychus urticae

## Cc1ccc(C(C)C)cc1O [Carvacrol]
Tetranychus urticae [1]; Dose 0.01 % (w/v)
  Mortality (%M): 38.9 ± 5.1%
Tetranychus urticae [1]; Dose 0.05 % (w/v)
  Mortality (%M): 47.1 ± 7.2%
Tetranychus urticae [1]; Dose 0.10 % (w/v)
  Mortality (%M): 66.8 ± 5.3%
Tetranychus urticae [1]; Dose 1.0 % (w/v)
  Mortality (%M): 100.0 ± 0.0%
Tetranychus urticae [1]; EC80
  concentration given 80% of contact mortality: 0.55%
Tetranychus urticae [1]; Table 12, contact mortality, limits in brackets, text calls it EC80
  EC80 (%, w/v): EC50 (%, w/v) = 0.55 (0.42, 0.8)

## CC(C)=CCC/C(C)=C/CO [geraniol]
Tetranychus urticae [1]; Dose 0.10 % (w/v)
  Mortality (%M): 18,1% and 18.1 ± 2.4% and 18.1 ± 2.4 ^a %
Tetranychus urticae [1]; Dose 0.50 % (w/v)
  Mortality (%M): 28.2% and 28.2 ± 3.2% and 28.2 ± 3.2 ^b %
Tetranychus urticae [1]; Dose 1.0 % (w/v)
  Mortality (%M): 43.9 ± 2.5% and 43.9 ± 2.5 ^c %
Tetranychus urticae [1]; contact mortality, linear regression %M on Log-dose, limits in brackets
  EC50 (%, w/v): EC50 (%, w/v) = 2.44 (1.24, 4.75)
Tetranychus urticae [1]; in vivo
  concentration given 50% of contact mortality: 2.44%
Tetranychus urticae [2]
  Knock-down effect (knockdown curve): slow and gradual increase in the mortality along the time
Tetranychus urticae [3]; Dose 0.02 % (w/v)
  Settling inhibition (%SI): 31.1 ± 4.4 %
Tetranychus urticae [3]; Dose 0.05 % (w/v)
  Settling inhibition (%SI): 47.5 ± 4.6 %
Tetranychus urticae [3]; Dose 0.10 % (w/v)
  Settling inhibition (%SI): 70.6%
Tetranychus urticae [3]; Dose 0.10 % (w/v), listed as Geraniol
  Settling inhibition (%SI): 70.6 ± 3.0 %
Tetranychus urticae [3]; Dose 0.50 % (w/v)
  Settling inhibition (%SI): 75.3 ± 3.4 %
Tetranychus urticae [3]; Dose 1.0 % (w/v)
  Settling inhibition (%SI): 82.9 ± 2.5 %
Tetranychus urticae [4]; Dose 0.10 % (w/v)
  Oviposition inhibition (%IO): 44.3 ± 3.7* %
  Settling inhibition (%SI): 57.7 ± 5.3%
Tetranychus urticae [4]; Dose 0.50 % (w/v)
  Oviposition inhibition (%IO): 72.1 ± 3.1* %
  Settling inhibition (%SI): 73.2 ± 2.6%
Tetranychus urticae [4]; Dose 1.0 % (w/v)
  Oviposition inhibition (%IO): 81.1 ± 2.1* %
  Settling inhibition (%SI): 76.1 ± 2.7%

— patent EP4353084A1, “BIOPESTICIDE COMPOSITION WITH SYNERGISTIC EFFECT AND METHOD FOR COMBATING AND CONTROLLING PESTS” (Kimitec Biogroup S.L, priority 2022, dated 2024)
